Patent US20260022143A1, “Cyclic Peptide Inhibitors of IL-23” (JANSSEN PHARMACEUTICA NV, priority 2022, published 2026)
Counter-ions that a name gives are not always drawn. Starred links: 1 amine or outer side, 2 acyl side, 3 side chain; linkers in the order of their positions; H or OH if unused. Positions of bridges follow the written chain, without caps; N, C: chain ends. Non-standard residues stand in square brackets, D forms with d. Residues, ends and D or L forms follow the SMILES beside them. ξ: configuration not given here. *: point of attachment. Trp(7-(3-AcNH-Ph)) = CC(=O)Nc1cccc(-c2cccc3c(C[C@H](N)C(=O)O)c[nH]c23)c1; X6 = C[N+](C)(C)CCCCCCCc1cn(-c2ccc(C[C@H](N[*:1])C(=O)[*:2])cc2)nn1; Me3N+(CH2)2O(CH2)2O(CH2)2CO = C[N+](C)(C)CCOCCOCCC(=O)*; X39 = NCCc1cn(-c2ccc(C[C@H](N[*:1])C(=O)[*:2])cc2)nn1; CH2CH2OCH2CH2OCH2CH2NMe3+ = C[N+](C)(C)CCOCCOCC*; Trp(7-Me) = Cc1cccc2c(C[C@H](N)C(=O)O)c[nH]c12; Abu(4-yl) = O=C([C@H](CC[*:3])N[*:1])[*:2]; Hexanoyl(6-NMe3+) = C[N+](C)(C)CCCCCC(=O)*; dLys(Me3) = C[N+](C)(C)CCCC[C@@H](N)C(=O)O; 2Nal = N[C@@H](Cc1ccc2ccccc2c1)C(=O)O; AEF = NCCOc1ccc(C[C@H](N)C(=O)O)cc1; Piperazinyl(4-Me) = CN1CCN(*)CC1; 3Pal = N[C@@H](Cc1cccnc1)C(=O)O; Lys(Me) = CNCCCC[C@H](N)C(=O)O; Pen = CC(C)(S)[C@H](N)C(=O)O; X44 = c1cc[n+](CCOCCOCC*)cc1; ξLys(Me) = CNCCCCC(N)C(=O)O; X38 = C[N+](C)(C)CCCCCC*; Thp = NC1(C(=O)O)CCOCC1; X3 = C[N+](C)(C)CCCCC*; Me2NCH2CH2 = CN(C)CC*; Tfa = O=C(C(F)(F)F)*; NHtBu = CC(C)(C)N*; Sar = CNCC(=O)O

What was measured:
IL-23R = biological target: T1, IL-23R (Homo sapiens, UniProt Q5VWK5); assay: IL23R Reporter Assay; type: cell-based; conditions: HEK293 cells containing IL-23R, IL-12RP1 and STAT-inducible firefly luciferase reporter; 10 ng/mL IL-23 (EC90); 5 h at 37° C.; read-out: IL23R Reporter Assay
T1 construct: host or cells: HEK293
T1 sequence (Q5VWK5 24-629): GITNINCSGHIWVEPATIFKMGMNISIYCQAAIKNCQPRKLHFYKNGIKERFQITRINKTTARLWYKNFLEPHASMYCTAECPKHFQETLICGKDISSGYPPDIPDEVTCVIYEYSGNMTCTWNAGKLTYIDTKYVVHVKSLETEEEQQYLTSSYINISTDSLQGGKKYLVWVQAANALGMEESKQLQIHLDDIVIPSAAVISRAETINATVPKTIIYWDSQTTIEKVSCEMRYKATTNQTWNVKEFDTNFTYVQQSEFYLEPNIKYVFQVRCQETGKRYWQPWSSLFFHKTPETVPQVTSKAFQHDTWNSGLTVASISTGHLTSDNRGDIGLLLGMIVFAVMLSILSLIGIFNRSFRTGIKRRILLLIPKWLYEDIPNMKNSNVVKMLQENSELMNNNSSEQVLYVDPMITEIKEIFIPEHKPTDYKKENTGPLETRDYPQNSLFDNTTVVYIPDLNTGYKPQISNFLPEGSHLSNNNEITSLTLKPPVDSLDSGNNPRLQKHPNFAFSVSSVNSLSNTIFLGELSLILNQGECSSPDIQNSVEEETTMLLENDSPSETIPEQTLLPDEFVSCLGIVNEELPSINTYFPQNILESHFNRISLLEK

[1] = Exposed Polar Surface Area (EPSA); type: physicochemical; conditions: SFC on Chirex 3014 column; sample 1 mM DMSO stock; read-out: EPSA
Method in brief: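 Retention-based polarity: supercritical CO2 with 20 mM ammonium formate in MeOH (5–60%, 20%/min), Chirex 3014 column, 35 °C. Calibrated against 8 standards to give EPSA (Å^2); each sample measured twice.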

Structure (SMILES)	IC50 (IL-23R) [nM]	EPSA [1] [A^2]
CC(=O)N(C)CCCC[C@@H]1NC(=O)[C@H](Cc2c[nH]c3c(C)cccc23)NC(=O)[C@H]([C@@H](C)O)NC(=O)[C@H](CC(=O)N(C)C)NC(=O)[C@@H](NC(=O)CCOCCOCC[N+](C)(C)C)C(C)(C)SSC(C)(C)[C@@H](C(=O)N[C@@H](Cc2ccc(OCCOCCOCC[n+]3ccccc3)cc2)C(=O)N[C@@H](Cc2ccc3ccccc3c2)C(=O)NC2(C(=O)N[C@@H](CCCCN(C)C(C)=O)C(=O)N[C@@H](CC(N)=O)C(=O)N[C@@H](Cc3cccnc3)C(=O)N(C)CC(=O)N(C)C)CCOCC2)NC1=O [compound 297, cPEG3aCO-Pen(3)-N(N(Me)2)-T-7MeW-K(NMeAc)-Pen(3)-NPyPEG3F-2Nal-THP-K(NMeAc)-N-3Pya-Sar-CON(Me)2] ({Me3N+(CH2)2O(CH2)2O(CH2)2CO}-[Pen]D(NMe2)T[Trp(7-Me)][Lys(Me)](Ac)[Pen]Y(X44)[2Nal][Thp][Lys(Me)](Ac)N[3Pal][Sar]-NMe2; disulfide 1-6 (inferred))	1.8	153
CNC(=O)C[C@@H]1NC(=O)[C@@H](NC(=O)CCOCCOCC[N+](C)(C)C)C(C)(C)SSC(C)(C)[C@@H](C(=O)N[C@@H](Cc2ccc(OCCCCC[N+](C)(C)C)cc2)C(=O)N[C@@H](Cc2ccc3ccccc3c2)C(=O)NC2(C(=O)N[C@@H](CCCCN(C)C(C)=O)C(=O)N[C@@H](CC(N)=O)C(=O)N[C@@H](Cc3cccnc3)C(=O)N(C)CC(=O)N(C)C)CCOCC2)NC(=O)[C@H](CCCCN(C)C(C)=O)NC(=O)[C@H](Cc2c[nH]c3c(C)cccc23)NC(=O)[C@H]([C@@H](C)O)NC1=O [compound 300, cPEG3aCO-Pen(3)-N(N(Me))-T-7MeW-K(NMeAc)-Pen(3)-TMAPF-2Nal-THP-K(NMeAc)-N-3Pya-Sar-CON(Me)2] ({Me3N+(CH2)2O(CH2)2O(CH2)2CO}-[Pen]D(NHMe)T[Trp(7-Me)][Lys(Me)](Ac)[Pen]Y(X3)[2Nal][Thp][Lys(Me)](Ac)N[3Pal][Sar]-NMe2; disulfide 1-6)	2.1	153
Cc1cccc2c(C[C@@H]3NC(=O)[C@H]([C@@H](C)O)NC(=O)[C@H](CC(=O)N(C)C)NC(=O)[C@@H](NC(=O)[C@@H](CCCCNC(=O)CCCCC[N+](C)(C)C)NC(=O)C(F)(F)F)C(C)(C)SSC(C)(C)[C@@H](C(=O)N[C@@H](Cc4ccc(OCCN(C)C)cc4)C(=O)N[C@@H](Cc4ccc5ccccc5c4)C(=O)NC4(C(=O)N[C@@H](CCC(=O)N(C)C)C(=O)N[C@@H](CC(N)=O)C(=O)N[C@@H](Cc5cccnc5)C(=O)N(C)CC(=O)N(C)C)CCOCC4)NC(=O)[C@H](CCC(=O)N(C)C)NC3=O)c[nH]c12 [compound 96, CF3CO-k(5cpa)-Pen(3)-N(N(Me)2)-T-7MeW-Q(N(Me)2)-Pen(3)-AEF(N(Me)2)-2Nal-THP-Q(N(Me)2)-N-3Pya-Sar-CON(Me)2] (Tfa-[dK](Hexanoyl(6-NMe3+))[Pen]D(NMe2)T[Trp(7-Me)]E(NMe2)[Pen]Y(Me2NCH2CH2)[2Nal][Thp]E(NMe2)N[3Pal][Sar]-NMe2; disulfide 2-7)	4.6	139
CC(=O)NCCCC[C@H](NC(=O)C1(NC(=O)[C@H](Cc2ccc3ccccc3c2)NC(=O)[C@H](Cc2ccc(OCCN)cc2)NC(=O)[C@H]2NC(=O)[C@H](CCC(=O)NC(C)(C)C)NC(=O)[C@H](Cc3c[nH]c4c(C)cccc34)NC(=O)[C@H]([C@@H](C)O)NC(=O)[C@H](CC(N)=O)NC(=O)[C@@H](NC(=O)C(F)(F)F)C(C)(C)SSC2(C)C)CCOCC1)C(=O)N[C@@H](CC(N)=O)C(=O)N[C@@H](Cc1cccnc1)C(=O)N(C)CC(N)=O [compound 60] (Tfa-[Pen]NT[Trp(7-Me)]E(NHtBu)[Pen][AEF][2Nal][Thp]K(Ac)N[3Pal][Sar]-NH2; disulfide 1-6 (inferred))	3.5	157
CC(=O)NCCCC[C@@H]1NC(=O)[C@H](Cc2c[nH]c3c(C)cccc23)NC(=O)[C@H]([C@@H](C)O)NC(=O)[C@H](CC(N)=O)NC(=O)[C@@H](NC(=O)CCOCCOCC[N+](C)(C)C)C(C)(C)SSC(C)(C)[C@@H](C(=O)N[C@@H](Cc2ccc(-n3cc(CCN)nn3)cc2)C(=O)N[C@@H](Cc2ccc3ccccc3c2)C(=O)NC2(C(=O)N[C@@H](CCCCNC(C)=O)C(=O)N[C@@H](CC(N)=O)C(=O)N[C@@H](Cc3cccnc3)C(=O)N(C)CC(N)=O)CCOCC2)NC1=O [compound 522, cPEG3aCO-Pen(3)-N-T-7MeW-K(Ac)-Pen(3)-F(4TzlAme2)-2Nal-THP-K(Ac)-N-3Pya-Sar-CONH2] ({Me3N+(CH2)2O(CH2)2O(CH2)2CO}-[Pen]NT[Trp(7-Me)]K(Ac)[Pen][X39][2Nal][Thp]K(Ac)N[3Pal][Sar]-NH2; disulfide 1-6)	1.6	176
CC(=O)N(C)CCCCC(NC(=O)C1(NC(=O)[C@H](Cc2ccc3ccccc3c2)NC(=O)[C@H](Cc2ccc(OCCOCCOCC[N+](C)(C)C)cc2)NC(=O)[C@@H]2CSCC[C@H](NC(=O)CCOCCOCC[N+](C)(C)C)C(=O)N[C@@H](CC(=O)N(C)C)C(=O)N[C@@H]([C@@H](C)O)C(=O)N[C@@H](Cc3c[nH]c4c(C)cccc34)C(=O)N[C@@H](CCCCN(C)C(C)=O)C(=O)N2)CCOCC1)C(=O)N[C@@H](CC(N)=O)C(=O)N[C@@H](C)C(=O)N(C)CC(=O)N(C)C (some centres unmarked) [compound 476, cPEG3aCO-Abu(1)-N(N(Me)2)-T-7MeW-K(NMeAc)-C(1)-APEG3F-2Nal-THP-K(NMeAc)-N-A-Sar-CON(Me)2] ({Me3N+(CH2)2O(CH2)2O(CH2)2CO}-[Abu(4-yl)]D(NMe2)T[Trp(7-Me)][Lys(Me)](Ac)CY(CH2CH2OCH2CH2OCH2CH2NMe3+)[2Nal][Thp][ξLys(Me)](Ac)NA[Sar]-NMe2; thioether 1-6)	> 2590	155
CC(=O)N(C)CCCC[C@@H]1NC(=O)[C@H](Cc2c[nH]c3c(C)cccc23)NC(=O)[C@H]([C@@H](C)O)NC(=O)[C@H](CC(=O)N(C)C)NC(=O)[C@@H](NC(=O)CCOCCOCC[N+](C)(C)C)C(C)(C)SSC(C)(C)[C@@H](C(=O)N[C@@H](Cc2ccc(-n3cc(CCCCCCC[N+](C)(C)C)nn3)cc2)C(=O)N[C@@H](Cc2ccc3ccccc3c2)C(=O)NC2(C(=O)N[C@@H](CCCCN(C)C(C)=O)C(=O)N[C@@H](CC(N)=O)C(=O)N[C@@H](Cc3cccnc3)C(=O)N(C)CC(=O)N(C)C)CCOCC2)NC1=O [compound 486, cPEG3aCO-Pen(3)-N(N(Me)2)-T-7MeW-K(NMeAc)-Pen(3)-F(4TzlTMA7)-2Nal-THP-K(NMeAc)-N-3Pya-Sar-CON(Me)2] ({Me3N+(CH2)2O(CH2)2O(CH2)2CO}-[Pen]D(NMe2)T[Trp(7-Me)][Lys(Me)](Ac)[Pen][X6][2Nal][Thp][Lys(Me)](Ac)N[3Pal][Sar]-NMe2; disulfide 1-6)	4.4	164
CC(=O)NCCCC[C@@H]1NC(=O)[C@H](Cc2c[nH]c3c(-c4cccc(NC(C)=O)c4)cccc23)NC(=O)[C@H]([C@@H](C)O)NC(=O)[C@H](CC(N)=O)NC(=O)[C@@H](NC(=O)[C@@H](CCCC[N+](C)(C)C)NC(C)=O)C(C)(C)SSC(C)(C)[C@@H](C(=O)N[C@@H](Cc2ccc(OCCCCC[N+](C)(C)C)cc2)C(=O)N[C@@H](Cc2ccc3ccccc3c2)C(=O)NC2(C(=O)N[C@@H](CCC(=O)O)C(=O)N[C@@H](CC(N)=O)C(=O)N[C@@H](Cc3cccnc3)C(=O)N(C)CC(N)=O)CCOCC2)NC1=O [compound 448, MeCO-k(Me)3-Pen(3)-N-T-7(3NAcPh)W-K(Ac)-Pen(3)-TMAPF-2Nal-THP-E-N-3Pya-Sar-CONH2] (Ac-[dLys(Me3)][Pen]NT[Trp(7-(3-AcNH-Ph))]K(Ac)[Pen]Y(X3)[2Nal][Thp]EN[3Pal][Sar]-NH2; disulfide 2-7)	2	176
CC(=O)NCCCC[C@@H]1NC(=O)[C@H](Cc2c[nH]c3c(C)cccc23)NC(=O)[C@H]([C@@H](C)O)NC(=O)[C@H](CC(N)=O)NC(=O)[C@@H](NC(C)=O)C(C)(C)SSC(C)(C)[C@@H](C(=O)N[C@@H](Cc2ccc(OCCN)cc2)C(=O)N[C@@H](Cc2ccc3ccccc3c2)C(=O)NC2(C(=O)N[C@@H](CCC(=O)O)C(=O)N[C@@H](CC(N)=O)C(=O)N[C@@H](Cc3cccnc3)C(=O)N(C)CC(=O)N3CCN(C)CC3)CCOCC2)NC1=O [compound 114] (Ac-[Pen]NT[Trp(7-Me)]K(Ac)[Pen][AEF][2Nal][Thp]EN[3Pal][Sar]-{Piperazinyl(4-Me)}; disulfide 1-6 (inferred))	28	173
CC(=O)N(C)CCCC[C@@H]1NC(=O)[C@H](Cc2c[nH]c3c(C)cccc23)NC(=O)[C@H]([C@@H](C)O)NC(=O)[C@H](CC(=O)N(C)C)NC(=O)[C@@H](NC(=O)CCOCCOCC[N+](C)(C)C)C(C)(C)SSC(C)(C)[C@@H](C(=O)N[C@@H](Cc2ccc(OCCCCCC[N+](C)(C)C)cc2)C(=O)N[C@@H](Cc2ccc3ccccc3c2)C(=O)NC2(C(=O)N[C@@H](CCCCN(C)C(C)=O)C(=O)N[C@@H](CC(N)=O)C(=O)N[C@@H](Cc3cccnc3)C(=O)N(C)CC(=O)N(C)C)CCOCC2)NC1=O [compound 293, cPEG3aCO-Pen(3)-N(N(Me)2)-T-7MeW-K(NMeAc)-Pen(3)-TMA6F-2Nal-THP-K(NMeAc)-N-3Pya-Sar-CON(Me)2] ({Me3N+(CH2)2O(CH2)2O(CH2)2CO}-[Pen]D(NMe2)T[Trp(7-Me)][Lys(Me)](Ac)[Pen]Y(X38)[2Nal][Thp][Lys(Me)](Ac)N[3Pal][Sar]-NMe2; disulfide 1-6)	3.2	149
